Experimental data reported in patent publication US20240282989A1, “PHENOTHIAZINE DERIVATIVES AND REDOX-FLOW BATTERIES” (University of Kentucky Research Foundation, priority 2023, published 2024).

Columns and labels:
Type in all cases: physicochemical
[1] = Cross-over experiments in custom-built H-cell with FAPQ-375-PP membrane; details: 0.1 M redoxomer in anhydrous acetonitrile; two layers FAPQ-375-PP membrane; CV of blank side up to 24 h
Method: We compared cross-over fractions of our newly synthesized redoxomers with our previous redoxomers such as MEEPT and EPRT-TFSI using a custom-built H-cell. A stack of two layer of FAPQ-375-PP membrane pre-soaked in acetonitrile for 24 h was used as membrane between two compartments of H-cell. For each set of experiment, a 0.1 M solution of redoxomer in anhydrous acetonitrile on the left side and acetonitrile (blank solution) on the right side. The cross over fractions were determined by cyclic voltammetry of the solution from the blank side in 0 h, 2 h, 4 h, 8 h, 12 h, and 24 h in a argon-filled glovebox.

[2] = Cyclic voltammetry of monomer and dimer; details: for 1st oxidation potential / ipa/ipc / peak separation: 1 mM in 0.1 M TEABF4/ACN; for redox event (number of electrons, reversibility) / oxidation potential: 10 mM solution; for redox event (number of electrons, reversibility): cyclic voltammetry; for ipa/ipc / peak separation: 1st oxidation; for oxidation potential: referenced to Fc/Fc+, glassy carbon working electrode
Method: The electrochemical stability and reversibility of redox-events were determined by cyclic voltammetry experiments, which were carried out in a CH Instrument potentiostat with glassy carbon electrode as a working electrode, Pt-wire electrode as a counter electrode and a silver electrode as a reference electrode. […]

[3] = Solubility / miscibility measurement (NMR method, internal standard); details: for solubility: organic solvent or mixture, NMR method
Method: The MEEPRT-TFSI monomer is a viscous liquid at room temperature, the miscibility was determined in acetonitrile and 0.1 M TEATFSI in acetonitrile. In both solvents, it is miscible when mixed with 1:10, 10:1, and 1:1 ratio by wt. of acetonitrile:redoxomers. Solubility of redoxomers were determined by NMR method using 1,4-bis(trifluoromethyl)benzene as an internal standard.

Row | cross over fraction [1] | 1st oxidation potential [2] | ipa/ipc [2] | peak separation [2] | oxidation potential [2] | miscibility ([3]; in 0.1 M TEATFSI in acetonitrile, 1:10, 10:1 and 1:1 ratio by wt.) | miscibility ([3]; in acetonitrile, 1:10, 10:1 and 1:1 ratio by wt. acetonitrile:redoxomers, room temperature) | solubility ([3]; in 0.1 M TEATFSI in acetonitrile) | solubility ([3]; in acetonitrile) | Compound | redox event (number of electrons, reversibility) [2] | miscibility of radical cations ([3]; in acetonitrile, 1:1, 10:1 and 1:10 by wt.)
1 | 0.0471 |  |  |  |  |  |  |  |  | COCCOCCN1c2ccccc2Sc2ccccc21 [MEEPT, reference compound] |  | 
2 | 0.0346 | 0.54 V | 1.06 | 59 mV | 0.54 V | miscible | miscible |  |  | COCCOCC[N+](C)(C)C(C)CN1c2ccccc2Sc2ccccc21 (stereo not drawn) [MEEPRT-TFSI] | single electron reversible redox reaction | 
3 |  |  |  |  |  |  |  |  |  | CC(C[N+]1c2ccccc2Sc2ccccc21)[N+](C)(C)CCOCCOCC[N+](C)(C)C(C)C[N+]1c2ccccc2Sc2ccccc21 (stereo not drawn) [dimer radical cation] |  | completely miscible
4 | 0.0037 | 0.54 V | 1.06 | 59 mV | same potential |  |  | 1200 mM | 1600 mM | CC(CN1c2ccccc2Sc2ccccc21)[N+](C)(C)CCOCCOCC[N+](C)(C)C(C)CN1c2ccccc2Sc2ccccc21 (stereo not drawn) [EEEPRT-TFSI2] | two-electron reversible redox event | 
